Data set [1] in a line: Critical micelle concentration by fluorophore encapsulation using diphenylhexatriene (DPH). Type of data set: physicochemical. To be noted: aqueous solution. The method, then:
A method of measuring a CMC is not particularly limited, and those methods widely known in the related field may be used. For example, a CMC may be measured by a fluorophore encapsulation method using diphenylhexatriene (DPH).
(§1) Specifically, a CMC was measured by a fluorophorescent encapsulation method using diphenylhexatriene (DPH) and an Rh of a micelle formed by each formulation (1.0 wt %) was measured using a dynamic light scattering (DLS) experiment.

A short description of data set [2]: Hydrodynamic radius / size distribution of micelles by dynamic light scattering (DLS). Type of data set: physicochemical. To be noted: 1.0 wt % amphiphile. The method, then:
A method of measuring a radius of the micelle is not particularly limited, and those methods widely known in the related field may be used, for example, a dynamic light scattering (DLS) experiment may be used for measurement.
as §1

For data set [3], the target named is T1, uric acid-xanthine/H+ symporter (UapA) (Emericella nidulans, UniProt Q07307, G411V).
T1 construct: GFP; made in house; host or cells: Saccharomyces cerevisiae FGY217
As to the kind of experiment: UapA structural (thermal) stability, CPM assay. Type of data set: biochemical, Aspergillus nidulans. To be noted: for effect in maintaining folded UapA, ranking among MGAs: CMC+0.2 wt %, 40° C., 120 minutes. The method, then: An experiment for measuring the structural stability of uric acid-xanthine/H^+ symporter (UapA) solubilized in MGAs in an aqueous solution was performed. The structural stability of UapA was measured using a CPM assay, and was measured at MGAs and DDM concentrations of (a) CMC+0.04 wt %, or (b) CMC+0.2 wt %.
Specifically, a UapA protein is a uric acid-xanthine/H^+ symporter in Aspergillus nidulans. Protein stability was measured by fluorescence spectroscopy using N-[4-(7-diethylamino-4-methyl-3-coumarinyl)phenyl]maleimide (CPM) which is a sulfhydryl-specific fluorophore. A free sulfhydryl group of a cysteine residue is in the interior of a protein, but becomes accessible to a solvent upon protein unfolding. CPM becomes fluorescent by a reaction with the free thiol, and thus provides as a protein unfolding sensor. In order to measure thermal stability, first, UapAG411V1-11 was expressed in the Saccharomyces cerevisiae FGY217 strain by fusion with GFP, and separated in a sample buffer (20 mM Tris (pH 7.5), 150 mM NaCl, 0.03% DDM and 1 mM xanthine) according to a method described in a research article (Mol. Membr. Biol. 2013, 30, 32-42) by J. Leung et al. A UapA protein was concentrated to about 10 mg/ml using a 100 kDa molecular weight cut-off filter (Millipore). The concentrated protein was diluted to a ratio of 1:150 with each buffer including DDM or MGA (MGA-C10, MGA-C11, MGA-C12, MGA-C13, MGA-C14 or MGA-C15) at a concentration of CMC+0.04 wt % or CMC+0.2 wt % in a Greiner 96-well plate. A CPM dye (Invitrogen) stored in DMSO (Sigma) was diluted with a dye buffer (20 mM Tris (pH 7.5), 150 mM NaCl, 0.03% DDM and 5 mM EDTA), and 3 μl of the diluted dye was added to each protein sample. The reaction mixture was incubated at 40° C. for 120 minutes. Fluorescence emission was monitored using a microplate spectrofluorometer, with an excitation wavelength at 387 nm and an emission wavelength at 463 nm. Relative maximum fluorescence was used to calculate a percentage of relative folded protein remaining after 120 minutes at 40° C. Relative unfolded proteins were plotted against time using GraphPad Prism.
Specifically, a UapA stabilization effect was evaluated by the same method as in Experimental Example 2 using MGA-C13, MGA-C14, MNG-3 or DDM at a concentration of (a) CMC+0.04 wt % or (b) CMC+0.2 wt %.

Data set [4] deals with T2, melibiose permease (MelBSt) (Salmonella typhimurium, UniProt P30878).
T2 construct: made in house; host or cells: DW2 cells (ΔmelB and ΔlacZY), Salmonella typhimurium DW2
As to the kind of experiment: MelBSt extraction from membranes and thermal stability, SDS-PAGE and Western blotting. Type of data set: biochemical. The settings on record: 1.5 wt %, 90 minutes. The method, then: An experiment for measuring the structural stability of Salmonella typhimurium melibiose permease (MelBSt) according to MGAs in an aqueous solution was performed. After MelBSt proteins were extracted from a membrane using MGAs or DDM, the amount and structure of extracted proteins were analyzed by SDS-PAGE and western blotting. The concentration of used amphiphiles was 1.5 wt %, and proteins were extracted at four different temperatures of 0, 45, 55 and 65° C. to evaluate both the protein extraction efficiency and stabilizing ability of a compound. A membrane sample which had not been treated with MGAs or DDM was used as a control group.
Specifically, MelBSt stability solubilized in DDM or MGAs was evaluated according to a method described in 2010 in a research article (P. S. Chae et al., Nat. Methods 2010, 7, 1003-1008.) by the inventors of the present invention. Proteins (MelBSt) were produced using plasmid pK95ΔAHB/WT MelBSt/CH10 encoding the wild-type MelB with a 6-His tag at the C-terminus and Salmonella typhimurium DW2 cells (ΔmelB and ΔlacZY). Cell growth and membrane preparation was performed according to a method described in a research article (Nat. Commun. 2014, 5, 3009) by A. S. Ethayathulla, et al. A protein assay was carried out using a Micro BCA kit (Thermo Scientific, Rockford, Ill.). In order to measure protein solubilization, a membrane sample (final protein concentration was 10 mg/mL) containing MelBSt was incubated with a solubilization buffer (20 mM sodium phosphate, pH 7.5, 200 mM NaCl, 10% glycerol and 20 mM melibiose) and 1.5% (w/v) DDM or MGA (MGA-C10, MGA-C11, MGA-C12, MGA-C13, MGA-C14 or MGA-C15) at four different temperatures of 0, 45, 55 and 65° C. for 90 minutes. After ultracentrifugation at 355,590 g in a Beckman Optima™ MAX Ultracentrifuge using a TLA-100 rotor for 45 min at 4° C., 20 μg of a protein was separated by SDS-16% PAGE and immunoblotted with a Penta-His-HRP antibody (Qiagen, Germantown, Md.). MelBSt was measured by an ImageQuant LAS 4000 Biomolecular Imager (GE Healthcare Life Sciences) using a SuperSignal West Pico chemiluminescent substrate.
In general terms: A western blot detects proteins with antibodies after separation by electrophoresis.

Data set [5] relates to leucine transporter (LeuT). As to the kind of experiment: LeuT long-term stability, [3H]-Leu binding by scintillation proximity assay (SPA). Type of data set: biochemical, Aquifex aeolicus. As to the method:
An experiment for measuring the structural stability of LeuT proteins according to MGAs (MGA-C11, MGA-C12, MGA-C13, MGA-C14 and MGA-C15) was performed. Each amphiphile was used at a concentration of (a) CMC+0.04 wt % or (b) CMC+0.2 wt %, a ligand-binding activity of LeuT was measured by scintillation proximity assay (SPA) using [^3H]-Leucine. The measurement was performed at regular intervals at room temperature during 12 days of incubation.
Specifically, a thermophilic bacteria Aquifex aeolicus-derived wild type LeuT was purified using a previously described method (Nature, G. Deckert et al., 1998, 392, 353-358). To sum up, the LeuT was expressed in E. coli C41 (DE3) cultured in a lysogeny broth medium supplemented with 0.1 mg/ml ampicillin. Expression of proteins was induced by adding isopropyl β-D-thiogalactopyranoside to a final concentration of 0.1 mM.
A cell membrane was separated from a crushed cell (Constant Systems Homogenizers, Kennesaw, Ga.), and solubilized in 1% (w/v) n-dodecyl-β-D-maltopyranoside (DDM; Affymetrix, Santa Clara, Calif.). After solubilization, LeuT was fixed in a Ni^2+-NTA resin (Life Technologies, Denmark), and eluted in 20 mM Tris-HCl (pH 7.5), 199 mM KCl, 1 mM NaCl, 0.05% (w/v) DDM and 300 mM imidazole. Thereafter, purified LeuT (about 1.5 mg/ml) was diluted tenfold with a buffer supplemented with MGA (MGA-C11, MGA-C12, MGA-C13, MGA-C14 or MGA-C15) or DDM to the final concentration of CMC+0.04% (w/v) or CMC+0.2% (w/v) while excluding DDM and imidazole from the above-described buffers. Protein samples were stored at room temperature for 12 days, and protein activity was determined by measuring [^3H]-Leu binding by SPA at a specified time. SPA was carried out using 450 mM NaCl and buffers containing each MGA, and a SPA reaction was performed in the presence of 20 nM [^3H]-Leu and 1.25 mg/ml copper chelate (His-Tag) YSi beads (Perkin Elmer, Denmark). [^3H]-Leu binding was measured using a MicroBeta liquid scintillation counter (Perkin Elmer).
(In general: SPA uses beads or plates that emit light when radiolabelled molecules are held near them.)

Results on four compounds are retold here after US10640527B2, “Mesitylene-cored amphiphiles and uses thereof” (Industry-University Cooperation Foundation Hanyang …, priority 2016, dated 2020).

T1 sequence (Q07307 12-574 G411V): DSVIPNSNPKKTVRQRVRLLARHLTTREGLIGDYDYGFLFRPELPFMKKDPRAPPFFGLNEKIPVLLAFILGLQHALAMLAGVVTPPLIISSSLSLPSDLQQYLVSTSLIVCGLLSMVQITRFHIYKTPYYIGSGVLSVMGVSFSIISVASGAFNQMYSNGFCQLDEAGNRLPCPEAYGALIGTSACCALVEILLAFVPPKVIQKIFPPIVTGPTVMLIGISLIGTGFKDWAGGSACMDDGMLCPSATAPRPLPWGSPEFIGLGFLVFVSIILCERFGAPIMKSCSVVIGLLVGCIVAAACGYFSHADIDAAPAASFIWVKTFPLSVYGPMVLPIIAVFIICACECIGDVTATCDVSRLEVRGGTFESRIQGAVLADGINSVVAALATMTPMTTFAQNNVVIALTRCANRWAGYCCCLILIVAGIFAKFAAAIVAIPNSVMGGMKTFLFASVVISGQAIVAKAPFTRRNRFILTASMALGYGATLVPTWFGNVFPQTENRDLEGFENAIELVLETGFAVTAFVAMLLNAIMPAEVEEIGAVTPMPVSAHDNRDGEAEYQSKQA
T2 sequence (P30878 whole entry): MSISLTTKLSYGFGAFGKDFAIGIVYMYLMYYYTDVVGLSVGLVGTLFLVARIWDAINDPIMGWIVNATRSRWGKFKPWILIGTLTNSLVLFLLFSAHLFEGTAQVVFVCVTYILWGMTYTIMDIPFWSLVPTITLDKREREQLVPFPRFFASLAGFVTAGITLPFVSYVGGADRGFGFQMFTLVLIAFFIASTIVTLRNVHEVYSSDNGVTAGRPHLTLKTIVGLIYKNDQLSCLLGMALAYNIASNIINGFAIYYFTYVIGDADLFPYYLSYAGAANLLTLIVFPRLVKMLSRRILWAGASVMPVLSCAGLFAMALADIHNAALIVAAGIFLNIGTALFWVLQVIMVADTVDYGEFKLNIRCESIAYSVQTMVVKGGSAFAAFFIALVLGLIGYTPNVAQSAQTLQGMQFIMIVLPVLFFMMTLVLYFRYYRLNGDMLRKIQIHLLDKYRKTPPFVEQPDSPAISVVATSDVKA

As for `CCCCCCCCCCCCCCC(CO[C@@H]1OC(CO)[C@@H](O)C(O)C1O)(CO[C@@H]1OC(CO)[C@@H](O)C(O)C1O)Cc1cc(CC(CCCCCCCCCCCCCC)(CO[C@@H]2OC(CO)[C@@H](O)C(O)C2O)CO[C@@H]2OC(CO)[C@@H](O)C(O)C2O)cc(CC(CCCCCCCCCCCCCC)(CO[C@@H]2OC(CO)[C@@H](O)C(O)C2O)CO[C@@H]2OC(CO)[C@@H](O)C(O)C2O)c1` (stereo partly drawn) [MGA-C14], in data set [1], the “CMC” value was approximately 2 µM and the “CMC (wt %)” value is approximately 0.0004 wt %. The “Rh (nm), hydrodynamic radius of micelle” value in data set [2] is 3.4 ± 0.04 nm. In data set [3] (CMC+0.04 wt % or CMC+0.2 wt %, FIG. 25), the “UapA stabilization effect compared with MNG-3” value is reported as “far greater UapA stabilization effect than MNG-3”. Moreover, the “effect in maintaining folded UapA, ranking among MGAs” value (shortened to “effect in maintaining folded UapA”) in data set [3] is “had the highest effect”. In data set [4] (45° C.), the “MelBSt protein extraction efficiency compared with DDM” value is on record as “same level of protein extraction efficiency as DDM”. For the same compound, in data set [4] (55° C.), the “MelBSt extraction ability compared with DDM” value was “higher MelBSt extraction ability than DDM”.
Consider `CCCCCCCCCCCC(CO[C@@H]1OC(CO)[C@@H](O)C(O)C1O)(CO[C@@H]1OC(CO)[C@@H](O)C(O)C1O)Cc1cc(CC(CCCCCCCCCCC)(CO[C@@H]2OC(CO)[C@@H](O)C(O)C2O)CO[C@@H]2OC(CO)[C@@H](O)C(O)C2O)cc(CC(CCCCCCCCCCC)(CO[C@@H]2OC(CO)[C@@H](O)C(O)C2O)CO[C@@H]2OC(CO)[C@@H](O)C(O)C2O)c1` (stereo partly drawn) [MGA-C11], for which, in data set [1], the “CMC” value was approximately 5 µM and the “CMC (wt %)” value was approximately 0.009 wt %. The “Rh (nm), hydrodynamic radius of micelle” value in data set [2] amounted to 3.0 ± 0.04 nm. In data set [3], the “effect in maintaining folded UapA” value is recorded as “less effective than the above-described MGAs, but still higher than DDM”. Besides, in data set [5] (12 days at room temperature, CMC+0.04 wt % or CMC+0.2 wt %), the “preservation of long-term stability of LeuT, comparison with DDM and ranking” value is “the most excellent MGA”. For the same compound, the “LeuT ligand-binding activity retained, % of initial activity” value in data set [5] (after 12 days of incubation at room temperature) is listed as approximately 90%.
For `CCCCCCCCCCCCC(CO[C@@H]1OC(CO)[C@@H](O)C(O)C1O)(CO[C@@H]1OC(CO)[C@@H](O)C(O)C1O)Cc1cc(CC(CCCCCCCCCCCC)(CO[C@@H]2OC(CO)[C@@H](O)C(O)C2O)CO[C@@H]2OC(CO)[C@@H](O)C(O)C2O)cc(CC(CCCCCCCCCCCC)(CO[C@@H]2OC(CO)[C@@H](O)C(O)C2O)CO[C@@H]2OC(CO)[C@@H](O)C(O)C2O)c1` (stereo partly drawn) [MGA-C12], in data set [1], the “CMC” value was approximately 3.5 µM and the “CMC (wt %)” value is on record as approximately 0.0006 wt %. Further, the “Rh (nm), hydrodynamic radius of micelle” value in data set [2] was found to be 3.1 ± 0.03 nm. Further, the “effect in maintaining folded UapA” value in data set [3] is “less effective than the above-described MGAs, but still higher than DDM”.
On to `CCCCCCCCCCC(CO[C@@H]1OC(CO)[C@@H](O)C(O)C1O)(CO[C@@H]1OC(CO)[C@@H](O)C(O)C1O)Cc1cc(CC(CCCCCCCCCC)(CO[C@@H]2OC(CO)[C@@H](O)C(O)C2O)CO[C@@H]2OC(CO)[C@@H](O)C(O)C2O)cc(CC(CCCCCCCCCC)(CO[C@@H]2OC(CO)[C@@H](O)C(O)C2O)CO[C@@H]2OC(CO)[C@@H](O)C(O)C2O)c1` (stereo partly drawn) [MGA-C10], for which, in data set [1], the “CMC” value is approximately 8 µM and the “CMC (wt %)” value was approximately 0.0014 wt %. Further, in data set [2], the “Rh (nm), hydrodynamic radius of micelle” value is listed as 2.9 ± 0.01 nm. The “effect in maintaining folded UapA” value in data set [3] is “less effective than the above-described MGAs, but still higher than DDM”.
